Test results taken from patent US8236848B2, “Diindolylmethane for the treatment of HPV infection” (BioResponse, L.L.C., priority 2001, dated 2012).

Key:
[1] = human, in vivo
Method: The subject is preferably fasting and plasma is preferred over serum. In this method 120 mg or more of formulated DIM (30 mg or more of actual DIM) are taken orally by a subject fasting for at least 4 hours along with 8 ounces of water. Blood samples are obtained on a timed basis between 120 and 180 minutes after ingesting the DIM. Samples obtained during this timeframe are analyzed by a Gas Chromatography Mass Spectrometry (GC-MS) technique. Circulating amounts of DIM during this timeframe are maximal levels following a single dose. […] The following steps describe the method for determining amounts of absorbed DIM in blood. • 1. […] The following ions are monitored: m/z 390 (primary), 391,392 (confirmatory). Area for peak 390 is measured. • 9. […]
For blood level studies adult subjects were studied in a fasting state. […] Sample analysis using a technique for GC-MS measurement of Diindolylmethane, involving acetonitrile extraction, silyation, and GC-MS quantitation was performed as adapted from the literature (Stresser, D. M., Bjeldanes, L. F., Bailey, G. S., et al., “The anticarcinogen 3,3′-Diindolylmethane is an inhibitor of cytochrome P-450”, J. Biochem. Toxicol., 10(4):191-201 (1995)) and described in section 4.2 above. […]

[2] = Urinary Diindolylmethane levels by GC-MS after a single oral dose; assay type: in vivo, human; conditions: for Urinary DIM: 75 mg oral dose (300 mg of 25% formulation), single individual
Method: The invention also provides a method for determining the urine level of DIM in a subject following oral administration of Diindolylmethane. In this method 300 mg or more of formulated DIM (75 mg or more of actual DIM) are taken with 8 ounces of water. Urine samples are obtained every 90 minutes for a period of 360 minutes. GC-MS operating conditions included were based on a published GC-MS analysis technique for DIM in urine (Sepkovic D W, Bradlow H L, Bell M, “Quantitative Determination of 3,3′-Diindolylmethane in the Urine of Individuals Receiving Indole-3-Carbinol” J. Nutrition (2002 in press). The following technique for analyzing DIM in urine samples was used: • 1. A 1 cc aliquot of urine for assay of diindolylmethane is mixed with 1 cc of sodium acetate buffer (pH 4.8) and 20 ul Beta-Glucuronidase from Helix Pomatia (110,200 units/ml: Sigma, St. Louis, Mo.). • 2. The solution is incubated at 40° C. for 24 hours. • 3. An internal standard of 4,4′dichlorodiindolylmethane is then added. • 4. The sample is then extracted in twice equal volume of chloroform and the sample vortexed and reduced to dryness under vacuum. • 5. The dried residue is dissolved in 20 uL of anhydrous pyridine and derivatized with 80 ul of N2O-bis-(timethyl-silyl)trifluoroacetamide (BFSTA) (Pierce Biochemical Co, Rockford, Ill.). The sample is heated to 100° C. for one hour. • 6. The derivatized sample is then injected into a Gas Chromatography Mass Spectrometer (GC-MS) in single ion monitoring mode recording results at a derivatized mass of 390. The following ions are monitored: m/z 390 (primary), 391,392 (confirmatory). Area for peak 390 is measured. • 7. Peaks are compared to a standard curve for pure diindoylylmethane in known concentrations as a standard. • 8. Creatinine in each 90 minute timed urine sample was measured by a standard Kinetic Alkaline Picrate (KAP) colormetric assay with results in mg of creatinine per cc of urine. • 9. Results obtained for DIM from the 1 cc aliquot of each timed urine sample are reported as nanograms of DIM per mg of Creatinine. This permits comparisons of urine samples of different water content in different timed samples eliminating the effects of changing hydration status of the human subject.
A related gas chromatography-mass spectrometry (GC-MS) method for the quantitation of Diindolylmethane in urine was developed. This technique is simpler, requiring less sample preparation but similar use of GC-MS analysis and provides results expressed as nanograms of Diindolylmethane per mg of Creatinine (ng DIM per mg Cre). Since production rates of Creatinine (Cre) are constant in an individual this technique allows comparison of urine samples from different times having differing water content. Sepkovic, D. W., Bradlow, H. L. Bell, M., Quantitative Determination of 3,3′-Diindolylmethane in the Urine of Individuals Receiving Indole-3-Carbinol, J. Nutrition (in press 2002).
A single individual was studied after taking 75 mg Diindolylmethane (300 mg of a 25% absorption-enhance formulation of Diindolylmethane) as a single dose after waiting 4 days since prior use of Diindolylmethane. Urine samples were collected every 90 minutes for a total of 360 minutes, frozen, and subsequently analyzed as described.

[3] = system: cutaneous warts (verrucae vulgaris); assay: Oral Diindolylmethane with Pregnenolone for cutaneous warts (case three); assay type: in vivo, human; conditions: patient three; dose increased to maximum of 150 mg/day over 6 weeks
Method: Pregnenolone at 50 mg/day in a capsule form was added for immune enhancement.

[4] = system: verrucae involving the plantar skin; assay: Oral Diindolylmethane for childhood warts (case two); assay type: in vivo, human; conditions: child two; 75 mg/day (3 mg/kg/day)
Description: The usefulness of oral forms of Diindolylmethane in treating verrucous disease of childhood is illustrated by the case of C. B. The subject is a child with classic verrucae involving the plantar skin of one foot. The process began as a single wart, which was frozen with liquid nitrogen by a pediatrician. […] Within 2 months, however, a new wart recurred at the sight of the original scar. Upon recurrence the primary lesion measured approximately 0.75 cm in diameter but was now circled by a number of smaller satellite lesions surrounding the recurrent primary wart.
Treatment was initiated with 75 mg/day of Diindolylmethane in an absorbable formulation (300 mg total formula weight). With the patient weighing 25 kg, this provided 3 mg/kg/day of Diindolylmethane and 12 mg/kg/day of the formulation. […] There was no pain or scarring associated with the gradual resolution.

[5] = system: HPV-related cervical dysplasia; assay: Oral Diindolylmethane for HPV-related cervical dysplasia (case histories and open pilot study); conditions: four women, 112 mg/day actual Diindolylmethane
Description: Women with moderate to severe dyplasia on cervical biopsies volunteered for an open trial of oral Diindolylmethane supplementation.
Four women, meeting the criteria of moderate to severe HPV-related cervical dysplasia were included in a pilot study.

[6] = system: Recurrent Laryngeal Papillomatosis (RRP); assay: Oral therapy of Recurrent Laryngeal Papillomatosis in a child (case one); assay type: in vivo, human; conditions: child A. L.; oral I3C 5-7 mg per kg, 6 months; no lengthening of intervals between surgical procedures
Method: The following describes oral Diindolylmethane therapy for the Recurrent Laryngeal Papillomatosis (RRP), a rare condition in which wart like lesions develop in and around the larynx and vocal cords in association with HPV. patient one is a child with RRP. They were diagnosed with RRP. Before Diindolylmethane therapy they had undergone 21 laryngoscopic surgical procedures for recurrent laryngeal papillomas compromising their airway. […] Tracheostomy was performed in 1998 to provide a more secure airway. Diindolylmethane in an absorbable formulation according to U.S. Pat. No. […] Surgical frequency increased immediately to two months.

laryngeal papillomatosis = conditions: cited from earlier work
[7] = system: cervical intraepithelial neoplasia (CIN); conditions: after 3 months on either 200 mg/day or 400 mg/day of I3C; 8 of 17; cited from earlier work
[8] = dietary supplementation with I3C, laryngeal papillomatosis

Compound | Augmentation in Diindolylmethane blood levels from the low to high dose [1] | Urinary DIM ([2]; 90 minutes) [ng/mg Cre] | Urinary DIM ([2]; 180 minutes) [ng/mg Cre] | Urinary DIM ([2]; 270 minutes) [ng/mg Cre] | Urinary DIM ([2]; 360 minutes) [ng/mg Cre] | Plateau of urinary Diindolylmethane ([2]; 75 mg oral dose, around 180 minutes following oral dosing) [ng/mg Creatinine] | Side effects [3] | Side effects associated with the oral treatment [4] | Side effects or adverse events [5] | Clinical response of laryngeal papillomas [6] | Doses with neurologic and gastrointestinal toxicity (laryngeal papillomatosis; clinical use of I3C) | Disappearance of existing lesions (laryngeal papillomatosis; [8]) | Patients with cessation of papilloma growth (laryngeal papillomatosis; [8]) [%] | Maximal tolerated dose (laryngeal papillomatosis; gastrointestinal and central nervous system side effects on increasing the dose) [mg/kg] | Treated patients with normalized cervical biopsy [7] [%]
c1ccc2c(Cc3c[nH]c4ccccc34)c[nH]c2c1 [Diindolylmethane] | more than 3 times | 2.6 | 3.82 | 3.30 | 2.50 | 3.5 | without side effects | No side effects | no significant side effects or adverse events |  |  |  |  |  | 
OCc1c[nH]c2ccccc12 [I3C, Indole-3-carbinol] |  |  |  |  |  |  |  |  |  | failed to produce clinical improvement | more than 400 mg per day | did not result in the disappearance of existing lesions in any patient | 33 | 5 to 7 | 50
